Results published in PubChem BioAssay AID1963825 (Molecular Pharmacology Branch, DTP, NCI, 2024).

Test: Anticancer human tumor 997537-175-T-J1-PDC patient-derived colon adenocarcinoma cell line growth inhibition [POLQ]
Settings: 997537-175-T-J1-PDC complex spheroid viability, combination with POLQ inhibitors; for IC50: curve of first compound; for viability, T/C: stronger effect = lower value
In short: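 Patient-derived tumour cells were co-cultured with HUVEC and mesenchymal stem cells as multicellular spheroids at 37 °C. They were treated with POLQ inhibitors (novobiocin, ART-558, RP6685) alone or combined with other agents. Top concentrations were at or near clinical Cmax (otherwise 10 microM; SN-38 at 1 microM), decreasing in half-log steps.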

[1] = second compound 0.0316 µM, first compound 0.0316 µM
[2] = second compound 0.0316 µM, first compound 0.1 µM
[3] = second compound 0.0316 µM, first compound 0.316 µM
[4] = second compound 0.0316 µM, first compound 1 µM
[5] = second compound 0.0316 µM, first compound 3.16 µM
[6] = second compound 0.0316 µM, first compound 10 µM
[7] = second compound 0.1 µM, first compound 0.0316 µM
[8] = second compound 0.1 µM, first compound 0.1 µM
[9] = second compound 0.1 µM, first compound 0.316 µM
[10] = second compound 0.1 µM, first compound 1 µM
[11] = second compound 0.1 µM, first compound 3.16 µM
[12] = second compound 0.1 µM, first compound 10 µM
[13] = second compound 0.316 µM, first compound 0.0316 µM
[14] = second compound 0.316 µM, first compound 0.1 µM
[15] = second compound 0.316 µM, first compound 0.316 µM
[16] = second compound 0.316 µM, first compound 1 µM
[17] = second compound 0.316 µM, first compound 3.16 µM
[18] = second compound 0.316 µM, first compound 10 µM
[19] = second compound 1 µM, first compound 0.0316 µM
[20] = second compound 1 µM, first compound 0.1 µM
[21] = second compound 1 µM, first compound 0.316 µM
[22] = second compound 1 µM, first compound 1 µM
[23] = second compound 1 µM, first compound 3.16 µM
[24] = second compound 1 µM, first compound 10 µM
[25] = second compound 3.16 µM, first compound 0.0316 µM
[26] = second compound 3.16 µM, first compound 0.1 µM
[27] = second compound 3.16 µM, first compound 0.316 µM
[28] = second compound 3.16 µM, first compound 1 µM
[29] = second compound 3.16 µM, first compound 3.16 µM
[30] = second compound 3.16 µM, first compound 10 µM
[31] = second compound 10 µM, first compound 0.0316 µM
[32] = second compound 10 µM, first compound 0.1 µM
[33] = second compound 10 µM, first compound 0.316 µM
[34] = second compound 10 µM, first compound 1 µM
[35] = second compound 10 µM, first compound 3.16 µM
[36] = second compound 10 µM, first compound 10 µM
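Further: luminescence signal used as a surrogate for viable cells; spheroids exposed to drugs for seven days before readout.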

C=CC(=O)N1CCN(c2nc(=O)n(-c3c(C)ccnc3C(C)C)c3nc(-c4c(O)cccc4F)c(F)cc23)C(C)C1 (centres undefined) + Cc1cccc(N(C)C(=O)C2C(O)CCN2c2nc(C)cc(C(F)(F)F)c2C#N)c1
IC50 (second compound 0.0316 µM): > 10 µM | IC50 (second compound 0.1 µM): > 10 µM | IC50 (second compound 0.316 µM): > 10 µM | IC50 (second compound 1 µM): > 10 µM | IC50 (second compound 3.16 µM): > 10 µM | IC50 (second compound 10 µM): > 10 µM | viability, T/C [1]: 98.6% | viability, T/C [2]: 96.7% | viability, T/C [3]: 102% | viability, T/C [4]: 106% | viability, T/C [5]: 96.3% | viability, T/C [6]: 103% | viability, T/C [7]: 104% | viability, T/C [8]: 114% | viability, T/C [9]: 92.2% | viability, T/C [10]: 106% | viability, T/C [11]: 96% | viability, T/C [12]: 94.3% | viability, T/C [13]: 101% | viability, T/C [14]: 113% | viability, T/C [15]: 108% | viability, T/C [16]: 99.5% | viability, T/C [17]: 102% | viability, T/C [18]: 104% | viability, T/C [19]: 105% | viability, T/C [20]: 108% | viability, T/C [21]: 111% | viability, T/C [22]: 108% | viability, T/C [23]: 105% | viability, T/C [24]: 82.2% | viability, T/C [25]: 103% | viability, T/C [26]: 99.3% | viability, T/C [27]: 98.6% | viability, T/C [28]: 98.7% | viability, T/C [29]: 93.9% | viability, T/C [30]: 99.3% | viability, T/C [31]: 102% | viability, T/C [32]: 121% | viability, T/C [33]: 94.8% | viability, T/C [34]: 96.1% | viability, T/C [35]: 79.8% | viability, T/C [36]: 93.1%

CC(C)n1c(=O)n(C)c2cnc3cc(F)c(-c4ccc(OCCCN5CCCCC5)nc4)cc3c21 + Nc1ccc(C#CCN(C(=O)Cc2ncc(C(F)(F)F)cc2C(F)(F)F)c2ccc(F)cc2)nn1
IC50 (second compound 0.0316 µM): > 10 µM | IC50 (second compound 0.1 µM): > 10 µM | IC50 (second compound 0.316 µM): > 10 µM | IC50 (second compound 1 µM): > 10 µM | IC50 (second compound 3.16 µM): > 10 µM | IC50 (second compound 10 µM): > 10 µM | viability, T/C [1]: 96% | viability, T/C [2]: 107% | viability, T/C [3]: 92.5% | viability, T/C [4]: 98% | viability, T/C [5]: 85.5% | viability, T/C [6]: 91.3% | viability, T/C [7]: 98.2% | viability, T/C [8]: 111% | viability, T/C [9]: 113% | viability, T/C [10]: 105% | viability, T/C [11]: 97.2% | viability, T/C [12]: 77.4% | viability, T/C [13]: 97% | viability, T/C [14]: 91.1% | viability, T/C [15]: 107% | viability, T/C [16]: 89.9% | viability, T/C [17]: 107% | viability, T/C [18]: 90.2% | viability, T/C [19]: 105% | viability, T/C [20]: 107% | viability, T/C [21]: 92.6% | viability, T/C [22]: 89.4% | viability, T/C [23]: 105% | viability, T/C [24]: 107% | viability, T/C [25]: 97.3% | viability, T/C [26]: 104% | viability, T/C [27]: 104% | viability, T/C [28]: 83.3% | viability, T/C [29]: 97.8% | viability, T/C [30]: 98.7% | viability, T/C [31]: 102% | viability, T/C [32]: 103% | viability, T/C [33]: 97.8% | viability, T/C [34]: 101% | viability, T/C [35]: 96.2% | viability, T/C [36]: 81.5%
